This is an account of results in patent publication EP1285971B1, “Methods for the phenotypic and genotypic assessment of the drug sensitivity of HIV integrase variants” (Tibotec Pharmaceuticals Ltd., priority 2001, dated 2003).

The test system of this experiment is patient_146514. As to the kind of experiment: microbe, parasite or virus in culture. The format is cell-based, HIV. Particulars: for fold change: fold change in EC50. The method, then: The integrase encoding sequence was amplified from either wildtype HIV-1 (IIIB) or NL4.3 virus, or HXB2D site-directed mutant viruses containing mutations in integrase (such as T66I, S153Y, M154I, or combinations thereof) (Hazuda et al., Science 2000, 287, 646-650), or patient samples. Starting from RNA, extracted from virus supernatant or plasma using the QIAamp® viral RNA extraction kit (Qiagen), cDNA was synthesized by reverse transcription (Expand TM reverse transcriptase, 30 min at 42°C) with the primer 3'EGINT10 (SEQ ID NO 11), followed by a nested PCR. The outer PCR was performed with the primers 5'EGINT1 (SEQ ID NO 1) and 3'EGINT10 (SEQ ID NO 11) (ΔR-IN-vif construct) or 5'EGINT3 (SEQ ID NO 4) and 3'EGINT10 (SEQ ID NO 11) (ΔIN construct) (Expand™ High Fidelity PCR system), and 5 µl of the outer product was used for an inner PCR with primers 5'EGINT2 (SEQ ID NO 3) and 3'EGINT11 (SEQ ID NO 12) (ΔR-IN-vif construct) or 5'EGINT4 (SEQ ID NO 5) and 3'EGINT6 (SEQ ID NO 7) (ΔIN construct). In a second protocol the outer primers were identical as described above, the inner primers are 5'EGINT5 (SEQ ID NO 6) and 3'EGINT6 (SEQ ID NO 7). The amplicons can be used for genotyping and phenotyping. Cycling conditions for both PCRs are denaturation for 3 min at 95°C, followed by 30 cycles of 1 min 90°C, 30 sec 55°C, and 2 min 72°C. A final extension was performed at 72°C for 10 min. For recombination, PCR products are purified using the QiaQuick® 96 PCR BioRobot kit (Qiagen), according to the manufacturer's protocol. If the protocol starts from DNA containing the HIV material such as proviral DNA, the reverse transcriptase step is not needed. The nested approach is also not needed when starting from proviral DNA. The obtained amplicons were sequenced using the primers: In_seq1F (SEQ ID NO 17), In_seq2F (SEQ ID NO 18), In_seq3F (SEQ ID NO 19), IN_seq1R (SEQ ID NO 20), IN_seq2R (SEQ ID NO 21), and IN_seq3R (SEQ ID NO 22).
A ΔR-IN-vif or ΔIN deletion construct was generated by site-directed mutagenesis on the template pSV40HXB2D with the primers MUT-IN1 (SEQ ID NO 13) and MUT-IN2 (ΔR-IN-vif construct) (SEQ ID NO 14) or MUT-IN3 (SEQ ID NO 15) and MUT-IN4 (SEQ ID NO 16) (ΔIN construct) (protocol Site-directed mutagenesis kit, Stratagene). After DpnI digestion for removal of the methylated template DNA, the construct was digested with SmaI and ligated to circulize the plasmid. The plasmid was transformed into competent cells such as Top10 cells, and colonies were screened for the presence of the deletion construct. The IN-deletion construct was checked by sequence analysis with primers 5'EGINT1 (SEQ ID NO 1) or […] and 3'EGINT10 (SEQ ID NO 11) or 3'EGINT11 (SEQ ID NO 12). For use in recombination experiments, large-scale plasmid DNA preparations were linearized by SmaI digestion and recombined with PCR amplified integrase genes from wild type, mutant, or patient viruses. The plasmid containing the integrase deletion (ΔIN) has been deposited pSV40HXB2D-ΔIN. The sequence of said plasmid is 14377 nucleotides long. The ΔR-IN-vif deletion construct is 13975 nucleotides long. The pSV40HXB2D-ΔIN was deposited at the Belgian Coordinated Collections of Micro-Organisms located at the Universiteit Gent - Laboratorium voor Moleculaire Biologie on August 5, 2002 and the accession number is LMBP 4574.
Recombinant virus was produced by co-transfection by electroporation of the SmaI-linearized IN-deletion construct and the integrase amplicon into MT4 cells or MT4 cells equipped with an LTR driven reporter gene construct. Production of recombinant virus was evaluated by scoring the cytopathogenic effect (CPE) that is induced by HIV-infection of MT4 cells or by the LTR-driven reporter signal induced by HIV infection in MT4 reporter cells.

Where [1] appears, read: AVE 2, patient_146514, primer set 3.
Setting [2] is: Human immunodeficiency virus 1, AVE 2, patient_146514, primer set 3.

pEC50: −log10 of the molar value. Where two headings read alike, the source gives them in different places.

`c1cc(CN2CCCNCCNCCCNCC2)ccc1CN1CCCNCCNCCCNCC1` [AMD3100]: the fold change under setting [1] is recorded as 1,0. The pEC50 under setting [2] was 7.26.

For `CC(C)CN(C[C@@H](O)[C@H](Cc1ccccc1)NC(=O)O[C@H]1CCOC1)S(=O)(=O)c1ccc(N)cc1` [APV, Amprenavir], under setting [1], the fold change is recorded as 1,4. Under setting [2], the pEC50 is 6.93.

Take `O=C(O)C1=CC(=C(c2ccc(O)c(C(=O)O)c2)c2ccc(O)c(C(=O)O)c2)C=CC1=O` [ATA]: the fold change under setting [1] is reported as 1,0. Further, where the note is “AVE 2, patient_146514, primer set 3, read-out: EC 50”, the pEC50 is 5.71.

For `Cc1cn([C@H]2C[C@H](N=[N+]=[N-])[C@@H](CO)O2)c(=O)[nH]c1=O` [AZT, Zidovudine], the fold change under setting [1] is reported as 0,9. Also, under setting [2], the pEC50 was 6.82.

`Cc1cc(C#N)cc(C)c1Oc1nc(Nc2ccc(C#N)cc2)nc(N)c1Br` [Compound 1, 4-[[6-amino-5-bromo-2-[(4-cyanophenyl)amino]-4-pyrimidinyl]oxy]-3,5-dimethyl-benzonitrile]: under setting [1], the pEC50 is 8.77 and the fold change is reported as 1,7.

On to `Cc1cc(C#N)cc(C)c1Oc1nc(Nc2ccc(C#N)cc2)nc(N)c1Br` [Compound 2, 4-[[6-amino-5-bromo-2-[(4-cyanophenyl)amino]-4-pyrimidinyl]oxy]-3,5-dimethyl-Benzonitrile], for which, under setting [1], the pEC50 is 8.41 and the fold change is 1,3.

Turning to `Nc1ccn([C@@H]2CS[C@H](CO)O2)c(=O)n1` [Compound 3TC, Lamivudine], under setting [1], the fold change is listed as 2,5. Moreover, the pEC50 under setting [2] was 5.46.

As to `CC(C)Oc1ccc(Cc2ccccc2)cc1C(=O)CC(=O)C(=O)O` [Compound 4, 2-(1-methylethyloxy)-α,γ dioxo-5-(phenylmethyl)-benzenebutanoic acid], the fold change under setting [1] is reported as 1,0. For the same molecule, the pEC50 under setting [2] was 6.55.

As for `O=c1[nH]cnc2c1ncn2[C@H]1CC[C@@H](CO)O1` [DDI, Didanosine], the fold change under setting [1] is on record as 2,2. Under setting [2], the pEC50 was 4.98.

In the case of `CC(C)(C)NC(=O)[C@@H]1CN(Cc2cccnc2)CCN1C[C@@H](O)C[C@@H](Cc1ccccc1)C(=O)N[C@H]1c2ccccc2C[C@H]1O` [IDV, Indinavir], under setting [1], the fold change was 1,3. Besides, under setting [2], the pEC50 was 7.25.

Turning to `Cc1ccnc2c1NC(=O)c1cccnc1N2C1CC1` [NVP, Nevirapine], the fold change under setting [1] was 1,7. For the same molecule, the pEC50 under setting [2] was 6.82.

Turning to `CC(C)c1nc(CN(C)C(=O)N[C@H](C(=O)N[C@@H](Cc2ccccc2)C[C@H](O)[C@H](Cc2ccccc2)NC(=O)OCc2cncs2)C(C)C)cs1` [RTV, ritonavir], under setting [1], the fold change is given as 1,3. Also, the pEC50 under setting [2] is 6.72.

For the molecule `CC(C)(C)NC(=O)[C@@H]1C[C@@H]2CCCC[C@@H]2CN1C[C@@H](O)[C@H](Cc1ccccc1)NC(=O)[C@H](CC(N)=O)NC(=O)c1ccc2ccccc2n1` [SQV, Saquinavir], under setting [1], the fold change is 1,7. Further, the pEC50 under setting [2] was 7.46.
